We go through 18 compounds from patent US9796700B2 (Celgene CAR LLC, priority 2013, dated 2017).

Assay [1] addresses Erk1 (Homo sapiens (Human), UniProt P27361). The assay is described as follows: Protein Mass Modification Assay (intact protein MALDI). It is filed as binding. The method, boiled down:
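Human Erk1 was incubated 60 min at room temperature with a 10-fold molar excess of compound, then analysed as intact protein by MALDI with sinapinic acid matrix. The centroid mass shift versus untreated protein was divided by compound molecular weight to give percent modified protein.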

In assay [2] the target is MEK1 activated ERK1 (Homo sapiens (Human), UniProt P27361). The experiment in a line: Omnia continuous-read kinase assay for potency against MEK1 activated ERK1. It is filed as biochemical. Particulars: MEK1 activated ERK1, WT, ATP at KM. The source says: Omnia Assay Protocol for Potency Assessment Against MEK1 Activated ERK1:
The protocol below describes continuous-read kinase assays to measure potency of compounds against activated ERK1 enzyme. The mechanics of the assay platform are best described by the vendor (Invitrogen, Carlsbad, Calif.) on their website at the following URL: invitrogen.com/site/us/en/home.html.
Briefly, a 1.25× stock of ERK1 enzyme (14-439-K) from Millipore (Billerica, Mass.), 5×ATP (AS001A) and ST17-Sox conjugated peptide substrate (KNZ1171C) were prepared in 1× kinase reaction buffer consisting of 20 mM Tris, pH 7.5, 5 mM MgCl2, 1 mM EGTA, 5 mM β-glycerophosphate, 5% glycerol (10× stock, KB002A) and 0.2 mM DTT. 10 μL of ATP/ST17-sox peptide substrate mix was combined with 0.5 μL volume of 100% DMSO and serially diluted compounds were prepared in 100% DMSO in a Corning (#3574) 384-well, white, non-binding surface microtiter plate (Corning, N.Y.). Kinase reactions were started with the addition of 40 μL of ERK1 solution and monitored every 71 seconds for 30-240 minutes at λex360/λem485 in a Synergy plate reader from BioTek (Winooski, Vt.). At the conclusion of each assay, progress curves from each well were examined for linear reaction kinetics and fit statistics (R^2, 95% confidence interval, absolute sum of squares). Initial velocity (0 minutes to ˜30+ minutes) from each reaction was determined from the slope of a plot of relative fluorescence units vs time (minutes or seconds) and then plotted against inhibitor concentration to estimate ^AppIC50 from log [Inhibitor] vs Response, Variable Slope model in GraphPad Prism from GraphPad Software (San Diego, Calif.).
[Reagent] used in optimized protocol:
[ERK1]=4 nM, [ATP]=50 μM, [ST17-Sox]=10 μM (ATP ^appKM 48 μM)
The results of this assay show the degree of inhibition of ERK activity, which is a direct measurement of inhibition of ERK activity. Results from this assay are reported in Table A under the column “ERK1 Omnia WT ATP KM IC50 (nM).”

Bounds are passed on as bounds.

Erk1, sequence (P27361 whole entry, looked up): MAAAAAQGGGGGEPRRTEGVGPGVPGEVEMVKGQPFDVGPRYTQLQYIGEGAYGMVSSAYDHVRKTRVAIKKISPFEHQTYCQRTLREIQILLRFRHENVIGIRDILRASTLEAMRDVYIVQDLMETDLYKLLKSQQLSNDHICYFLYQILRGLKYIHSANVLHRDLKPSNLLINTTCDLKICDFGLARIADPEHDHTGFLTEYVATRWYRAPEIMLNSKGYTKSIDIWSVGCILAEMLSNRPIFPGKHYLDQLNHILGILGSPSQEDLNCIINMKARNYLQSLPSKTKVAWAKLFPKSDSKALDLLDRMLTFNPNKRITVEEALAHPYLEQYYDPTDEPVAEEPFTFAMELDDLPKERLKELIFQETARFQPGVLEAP
MEK1 activated ERK1, sequence (P27361 whole entry): as the sequence (P27361 whole entry, looked up) above

One may read the IC50 as the midpoint of a concentration-inhibition curve. As for `N#CNC(=O)c1ccccc1Nc1nc(N[C@H]2CCCN(C(=O)CO)C2)ncc1C(F)(F)F` [Compound I-26, (S)—N-Cyano-2-((2-((1-(2-hydroxyacetyl)piperidin-3-yl)amino)-5-(trifluoromethyl)pyrimidin-4-yl)amino)benzamide], the “ERK1 Mass Mod (%)” value in assay [1] was “G (proived a mass modification ≦30%)”. In addition, the IC50 in assay [2] was more than 1000 nM.

For `CC#CC(=O)Nc1ccccc1Nc1nc(N[C@H]2CCCN(C(=O)CO)C2)ncc1C(F)(F)F` [Compound I-29, (S)—N-(2-((2-((1-(2-Hydroxyacetyl)piperidin-3-yl)amino)-5-(trifluoromethyl)pyrimidin-4-yl)amino)phenyl)but-2-ynamide], the “ERK1 Mass Mod (%)” value in assay [1] is “G (proived a mass modification ≦30%)”. Further, the IC50 in assay [2] was more than 1000 nM.

Consider `CC#CC(=O)N[C@@H]1CCCC[C@H]1Nc1nc(N[C@H]2CCCN(C(=O)CO)C2)ncc1C(F)(F)F` [Compound I-33, N-((1R,2R)-2-((2-(((S)-1-(2-Hydroxyacetyl)piperidin-3-yl)amino)-5-(trifluoromethyl)pyrimidin-4-yl)amino)cyclohexyl)but-2-ynamide], for which the “ERK1 Mass Mod (%)” value in assay [1] is listed as “F (provided a mass modification of 31-69%)”. For the same compound, in assay [2], the IC50 was more than 1000 nM.

On to `C=CS(=O)(=O)N[C@@H]1CCCC[C@H]1Nc1nc(N[C@H]2CCCN(C(=O)CO)C2)ncc1C(F)(F)F` [Compound I-36, N-((1R,2R)-2-((2-(((S)-1-(2-Hydroxyacetyl)piperidin-3-yl)amino)-5-(trifluoromethyl)pyrimidin-4-yl)amino)cyclohexyl)ethenesulfonamide], for which, in assay [1], the “ERK1 Mass Mod (%)” value is reported as “E (provided a mass modification of ≧70%)”. In assay [2], the IC50 is less than 100 nM.

As to `C=CC(=O)Nc1ccc(C)cc1Nc1nc(N[C@H]2CCCN(C(=O)CO)C2)ncc1C(F)(F)F` [Compound I-37, (S)—N-(2-((2-((1-(2-hydroxyacetyl)piperidin-3-yl)amino)-5-(trifluoromethyl)pyrimidin-4-yl)amino)-4-methylphenyl)acrylamide], the “ERK1 Mass Mod (%)” value in assay [1] is given as “E (provided a mass modification of ≧70%)”. For the same compound, the IC50 in assay [2] was less than 100 nM.

As for `C=CC(=O)Nc1cc(C)ccc1Nc1nc(NC2CCC(=O)CC2)ncc1C(F)(F)F` [Compound I-38, N-(5-Methyl-2-((2-((4-oxocyclohexyl)amino)-5-(trifluoromethyl)pyrimidin-4-yl)amino)phenyl)acrylamide], in assay [1], the “ERK1 Mass Mod (%)” value is recorded as “E (provided a mass modification of ≧70%)”. In assay [2], the IC50 was less than 100 nM.

For `C=CC(=O)Nc1cc(C)ccc1Nc1nc(N[C@H]2CCCN(C(=O)CN)C2)ncc1C(F)(F)F` [Compound I-42, (S)—N-(2-((2-((1-(2-Aminoacetyl)piperidin-3-yl)amino)-5-(trifluoromethyl)pyrimidin-4-yl)amino)-5-methylphenyl)acrylamide], the “ERK1 Mass Mod (%)” value in assay [1] was “E (provided a mass modification of ≧70%)”. The IC50 in assay [2] is less than 100 nM.

In the case of `C=CC(=O)Nc1cc(C)ccc1Nc1nc(N[C@H]2CCCN(C(=O)c3ccccc3)C2)ncc1C(F)(F)F` [Compound I-44, (S)—N-(2-((2-((1-Benzoylpiperidin-3-yl)amino)-5-(trifluoromethyl)pyrimidin-4-yl)amino)-5-methylphenyl)acrylamide], the “ERK1 Mass Mod (%)” value in assay [1] was “E (provided a mass modification of ≧70%)”. Also, in assay [2], the IC50 is more than 1000 nM.

Regarding `C=CC(=O)Nc1ccccc1CNc1nc(N[C@H]2CCCN(C(=O)CO)C2)ncc1C(F)(F)F` [Compound I-45, (S)—N-(2-(((2-((1-(2-Hydroxyacetyl)piperidin-3-yl)amino)-5-(trifluoromethyl)pyrimidin-4-yl)amino)methyl)phenyl)acrylamide], the “ERK1 Mass Mod (%)” value in assay [1] is recorded as “G (proived a mass modification ≦30%)”. In assay [2], the IC50 is more than 1000 nM.

Turning to `C=C(C)S(=O)(=O)Nc1ccccc1Nc1nc(N[C@H]2CCCN(C(=O)CO)C2)ncc1C(F)(F)F` [Compound I-46, (S)—N-(2-((2-((1-(2-Hydroxyacetyl)piperidin-3-yl)amino)-5-(trifluoromethyl)pyrimidin-4-yl)amino)phenyl)prop-1-ene-2-sulfonamide], in assay [1], the “ERK1 Mass Mod (%)” value was “G (proived a mass modification ≦30%)”. Further, the IC50 in assay [2] is less than 100 nM.

For the compound `C=C(C)S(=O)(=O)Nc1cc(C)ccc1Nc1nc(N[C@H]2CCCN(C(=O)CO)C2)ncc1C(F)(F)F` [Compound I-47, (S)—N-(2-((2-((1-(2-Hydroxyacetyl)piperidin-3-yl)amino)-5-(trifluoromethyl)pyrimidin-4-yl)amino)-5-methylphenyl)prop-1-ene-2-sulfonamide], the “ERK1 Mass Mod (%)” value in assay [1] is “G (proived a mass modification ≦30%)”. In assay [2], the concentration for half-maximal inhibition (IC50) is less than 100 nM.

Turning to `C=C(C)S(=O)(=O)Nc1cc(C)ccc1Nc1nc(NC2CCC(=O)CC2)ncc1C(F)(F)F` [Compound I-53, N-(5-Methyl-2-((2-((4-oxocyclohexyl)amino)-5-(trifluoromethyl)pyrimidin-4-yl)amino)phenyl)prop-1-ene-2-sulfonamide], the “ERK1 Mass Mod (%)” value in assay [1] is on record as “G (proived a mass modification ≦30%)”. Further, the IC50 in assay [2] is less than 100 nM.

On to `C=C(C)S(=O)(=O)Nc1cc(F)ccc1Nc1nc(N[C@H]2CCCN(C(=O)CO)C2)ncc1C(F)(F)F` [Compound I-54, (S)—N-(5-Fluoro-2-((2-((1-(2-hydroxyacetyl)piperidin-3-yl)amino)-5-(trifluoromethyl)pyrimidin-4-yl)amino)phenyl)prop-1-ene-2-sulfonamide], for which the “ERK1 Mass Mod (%)” value in assay [1] was “G (proived a mass modification ≦30%)”. In assay [2], the IC50 is less than 100 nM.

With `C=C(F)C(=O)Nc1ccccc1Nc1nc(N[C@H]2CCCN(C(C)=O)C2)ncc1C(F)(F)F` [Compound I-55, (S)—N-(2-((2-((1-Acetylpiperidin-3-yl)amino)-5-(trifluoromethyl)pyrimidin-4-yl)amino)phenyl)-2-fluoroacrylamide], the “ERK1 Mass Mod (%)” value in assay [1] is recorded as “E (provided a mass modification of ≧70%)”. The IC50 in assay [2] is less than 100 nM.

For the compound `C=CC(=O)Nc1ccccc1Nc1nc(N[C@@H]2CCN(C(=O)OC)C2)ncc1C(F)(F)F` [Compound I-61, (R)-Methyl 3-((4-((2-Acrylamidophenyl)amino)-5-(trifluoromethyl)pyrimidin-2-yl)amino)pyrrolidine-1-carboxylate], in assay [1], the “ERK1 Mass Mod (%)” value is “E (provided a mass modification of ≧70%)”. Moreover, in assay [2], the IC50 was more than 1000 nM.

On to `C=CC(=O)Nc1ccccc1Nc1nc(N[C@@H]2CCN(C(=O)CO)C2)ncc1C(F)(F)F` [Compound I-62, (R)—N-(2-((2-((1-(2-Hydroxyacetyl)pyrrolidin-3-yl)amino)-5-(trifluoromethyl)pyrimidin-4-yl)amino)phenyl)acrylamide], for which, in assay [1], the “ERK1 Mass Mod (%)” value is listed as “F (provided a mass modification of 31-69%)”. Also, in assay [2], the half-inhibitory concentration (IC50) is more than 1000 nM.

Take `C=CC(=O)Nc1cc(OC)ccc1Nc1nc(N[C@H]2CCCN(C(=O)CO)C2)ncc1C(F)(F)F` [Compound I-64, (S)—N-(2-((2-((1-(2-Hydroxyacetyl)piperidin-3-yl)amino)-5-(trifluoromethyl)pyrimidin-4-yl)amino)-5-methoxyphenyl)acrylamide]: the “ERK1 Mass Mod (%)” value in assay [1] is “E (provided a mass modification of ≧70%)”. In assay [2], the half-inhibitory concentration (IC50) was less than 100 nM.

With `C=CC(=O)Nc1ccccc1Nc1nc(Nc2cc(C(=O)NOC)ccc2C)ncc1C(F)(F)F` [Compound I-69, 3-((4-((2-Acrylamidophenyl)amino)-5-(trifluoromethyl)pyrimidin-2-yl)amino)-N-methoxy-4-methylbenzamide], the “ERK1 Mass Mod (%)” value in assay [1] is “E (provided a mass modification of ≧70%)”. For the same compound, the IC50 in assay [2] was less than 100 nM.
